Patent US10758609B2, “Cross-reactive T-cell epitopes of HIV, SIV, and FIV for vaccines in humans and cats” (priority 2015, dated 2020)
“Also recorded” adds a separate entry of the source.

Legend:
[1] = tested on: CD8^+ T cells from HIV^+ subjects; assay: FACS-based intracellular staining (ICS) for cytolysin (perforin) and cytotoxins (GrzA, GrzB) in CD8+ T cells; settings: HIV+ human subjects; for Cyto: CD8+ T-cell cytotoxins (perforin, GrzA & B), frequency of responders: FIV epitope peptide; for Cyto (cytolysin/cytotoxin production), frequency of responders: FIV peptides
Summary of the method: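 Peptides tested with PBMC and T cells from HIV^+ subjects, some on ART. CFSE proliferation positive at ≥2% CFSE^low CD4^+ or CD8^+ T cells; intracellular perforin, granzyme A and B staining by FACS positive at ≥0.2%.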

FIVFC1 = assay: FIV enhancement and suppression (E/S) analysis of in vitro FIV infection of feline PBMC; format: cell-based, feline immunodeficiency virus; settings: for Direct effect on in vitro FIV infection (enhancement/suppression): 7 μg/mL peptide or MAP, PBMC of uninfected SPF cats, versus virus control; for FIV Test E/S (enhancer/suppressor analysis): FIV peptides, in vitro FIV infection of uninfected cat PBMC
Protocol: FIV viral enhancement or suppression was determined using a 48-well modification of the method described for detecting FIV enhancing activity of IFNγ and FIV suppressive activity of IFNα [37]. […] MAP1c contained four branched chains of peptide Fp4-3. T-cell mitogen concanavalin A (ConA) at 4 μg/mL was used as an infection enhancing control. Six hours after the culturing with peptide, MAP, or ConA, varying dilutions of FIVFC1 were added to the wells. Seventy-two hours later the cells were re-cultured in fresh culture media with ConA-stimulated autologous PBMC (0.25-0.5×10^6) using the same amount of corresponding peptide, MAP, ConA or media. On Day 7, 10, and 13 of culture, 0.5 mL of culture fluid was collected and 0.5 mL of fresh media added to maintain a consistent volume. The harvested culture samples were analyzed for FIV titer using the previously described RT assay. The results are shown as the end-point dilution titer from two studies using PBMC from different SPF donors.
Statistical analysis. The statistically significant differences between the end-point dilution titers of the peptide or MAP culture samples and either the virus control samples or specific MAP culture samples were calculated using a paired Student t-test with a two-tailed distribution (SigmaPlot version 11.0). Statistical comparisons between pre and post-vaccination(s) were similarly performed. The comparison was considered statistically significant when p<0.05.

PBMC from cat SBA = format: cell-based; settings: PBMC of cat SBA, 14 wk post-challenge boost

KKKSGKWRMLIDFRV [FRT3-3]
Cyto: CD8+ T-cell cytotoxins (perforin, GrzA & B), frequency of responders [1]: ++++ (>54% (++++)) | Cyto (cytolysin/cytotoxin production), frequency of responders [1]: ++++ (>54% (++++)) | Direct effect on in vitro FIV infection (enhancement/suppression) (FIVFC1): significant enhancement; also recorded: enhanced in vitro FIV infection; also recorded: enhance/ | FIV Test E/S (enhancer/suppressor analysis) (FIVFC1): ↑

PTDMATLIMAAPGCA [Fp4-3]
Direct effect on in vitro FIV infection (enhancement/suppression) (FIVFC1): significantly enhanced FIV infection | Direct effect on in vitro FIV infection (enhancement/suppression) (FIVFC1; listed as Fp4-3 real): enhancing | FIV Test E/S (enhancer/suppressor analysis) (FIVFC1): ↑ | GrzA mRNA (PBMC from cat SBA): low | GrzB mRNA (PBMC from cat SBA): no detectable levels | IFNγ mRNA (PBMC from cat SBA): high | IL2 mRNA (PBMC from cat SBA): low | perforin mRNA (PBMC from cat SBA): no detectable levels

WRMLIDFRVLNKL [FRT3-4]
Cyto: CD8+ T-cell cytotoxins (perforin, GrzA & B), frequency of responders [1]: ++++ (>54% (++++)) | Cyto (cytolysin/cytotoxin production), frequency of responders [1]: ++++ (>54% (++++)) | Direct effect on in vitro FIV infection (enhancement/suppression) (FIVFC1): significantly suppressed FIV infection; also recorded: suppress | FIV Test E/S (enhancer/suppressor analysis) (FIVFC1): ↓
